Assay results as given in patent US20260116921A1, “PEPTIDE INHIBITORS OF INTERLEUKIN-23 RECEPTOR AND THEIR USE TO TREAT INFLAMMATORY DISEASES” (priority 2018, published 2026).
Bridge positions count the residues as written; N and C are the ends. Square brackets hold non-standard residues; d marks the D form. Peptide text beside a SMILES is read from it. Trp(7-Me) = Cc1cccc2c(C[C@H](N)C(=O)O)c[nH]c12; 2Nal = N[C@@H](Cc1ccc2ccccc2c1)C(=O)O; AEF = NCCOc1ccc(C[C@H](N)C(=O)O)cc1; Cit = NC(=O)NCCC[C@H](N)C(=O)O; αMeL = CC(C)C[C@](C)(N)C(=O)O; Pen = CC(C)(S)[C@H](N)C(=O)O; αMeK = C[C@](N)(CCCCN)C(=O)O; Aib = CC(C)(N)C(=O)O; βAla = NCCC(=O)O

Tests used:
[1] = in vitro; conditions: cynomolgus monkey, 20% fecal homogenate (supernatant), anaerobic, pH 6.8
[2] = in vitro; conditions: both, SD, rat, plasma (EDTA)
[3] = test system: NK cells; test: NK cell based assay (IL-23/IL-18-induced IFNγ, Quantikine ELISA); conditions: human primary NK cells, IL-23 at EC50 to EC75 + IL-18 10 ng/mL, IFNγ after 20 to 24 hours
Method: killer (NK) cells, purified from human peripheral blood of healthy donors by negative selection (Miltenyi Biotech, Cat #130-092-657), were cultured in complete media (RPMI 1640 containing […], L-glutamine and penicillin-streptomycin) in the presence of IL-2 (RnD, Cat #202-IL-010/CF) at 25 ng/mL. After 7 days, cells were centrifuged, and resuspended in complete media at IE6 cells/mL. […] After 20 to 24 hours, IFNγ in the supernatant was quantified using Quantikine ELISA (RnD, Cat #DIF50).

[4] = in vitro; conditions: human, 20% fecal homogenate (supernatant), anaerobic, pH 6.8
[5] = target: T1, IL-23R (Homo sapiens, UniProt Q5VWK5); test: DB cells IL23R pSTAT3 cell assay (pStat3 HTRF); format: cell-based; conditions: Table E3; DB cells, IL-23 0.5 nM, 30 minutes at 37° C.; read-out: pStat3 HTRF (IC50)
T1 sequence (Q5VWK5 24-629): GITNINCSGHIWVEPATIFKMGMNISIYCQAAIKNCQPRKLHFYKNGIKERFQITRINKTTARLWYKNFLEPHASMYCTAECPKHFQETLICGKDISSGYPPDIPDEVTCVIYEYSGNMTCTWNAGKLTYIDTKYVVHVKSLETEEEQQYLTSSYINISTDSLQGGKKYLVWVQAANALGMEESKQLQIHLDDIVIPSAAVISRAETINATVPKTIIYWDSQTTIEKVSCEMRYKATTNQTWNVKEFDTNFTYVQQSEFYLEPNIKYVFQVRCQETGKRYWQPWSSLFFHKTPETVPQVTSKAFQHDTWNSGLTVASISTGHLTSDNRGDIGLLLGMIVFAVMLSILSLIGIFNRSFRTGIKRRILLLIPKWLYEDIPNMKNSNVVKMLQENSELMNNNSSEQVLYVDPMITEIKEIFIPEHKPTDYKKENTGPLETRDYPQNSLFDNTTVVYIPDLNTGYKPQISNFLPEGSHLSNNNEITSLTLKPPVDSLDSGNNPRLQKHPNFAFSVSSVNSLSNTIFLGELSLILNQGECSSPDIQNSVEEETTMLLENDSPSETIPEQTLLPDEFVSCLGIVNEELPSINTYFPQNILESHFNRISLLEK
How it was run: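 DB cells (5×10E5/well, RPMI-1640 + 10% FBS) stimulated with 0.5 nM final IL-23 plus serially diluted test peptides for 30 min at 37 °C, 5% CO2. Phospho-STAT3 (Tyr705) in lysates measured by HTRF using a two-plate protocol.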

[6] = in vitro; format: in vitro ADME; set-up: half-life: dose or concentration left out as unconfirmed; conditions: simulated intestinal fluid (SIF) with pancreatin, pH 6.8, 37° C., § matrix is 100 fold dilution of standard SIF concentration, read-out: SIF t½ (converted)
Method: SIF was prepared by adding 6.8 g of monobasic potassium phosphate and 10.0 g of pancreatin to 1.0 L of water. After dissolution, the pH was adjusted to 6.8 using NaOH. DMSO stocks (2 mM) were first prepared for the test compounds. Aliquots of the DMSO solutions were dosed into 6 individual tubes, each containing 0.5 mL of SIF, which is pre-warmed to 37° C. The final test compound concentration was 20 M. The vials were kept in a benchtop Thermomixer® for the duration of the experiment. At each timepoint (0, 5, 10, 20, 40, 60, or 360 minutes or 24 hours), 1.0 mL of acetonitrile containing 1% formic acid was added to one vial to terminate the reaction. Samples were stored at 4° C. until the end of the experiment. After the final timepoint is sampled, the tubes were mixed and then centrifuged at 3,000 rpm for 10 minutes. Aliquots of the supernatant were removed, diluted 1:1 into distilled water containing internal standard, and analyzed by LCMS/MS. Percent remaining at each timepoint was calculated based on the peak area response ratio of test to compound to internal standard. Time 0 was set to 100%, and all later timepoints were calculated relative to time 0. Half-lives were calculated by fitting to a first-order exponential decay equation using Graphpad.

CC(=O)NCCCC[C@H](NC(=O)[C@](C)(CC(C)C)NC(=O)[C@H](Cc1ccc2ccccc2c1)NC(=O)[C@H](Cc1ccc(OCCN)cc1)NC(=O)[C@H]1NC(=O)[C@H](CCC(N)=O)NC(=O)[C@H](Cc2c[nH]c3c(C)cccc23)NC(=O)[C@H]([C@@H](C)O)NC(=O)[C@H](CC(N)=O)NC(=O)[C@@H](NC(C)=O)C(C)(C)SSC1(C)C)C(=O)NCCC(=O)NCCC(N)=O [compound 226]
half-life at 20 μM [1]: > 24 h
half-life at 20 μM [2]: 8 h
IC50 [3]: < 10 nM
half-life at 20 μM [4]: > 24 h
IC50 [5]: 10 to 100 nM

CC(=O)NCCCC[C@H](NC(=O)[C@](C)(CCCCN)NC(=O)[C@H](Cc1ccc2ccccc2c1)NC(=O)[C@H](Cc1ccc(OCCN)cc1)NC(=O)[C@H]1NC(=O)[C@H](CCC(N)=O)NC(=O)[C@H](Cc2cn(C)c3ccccc23)NC(=O)[C@H]([C@@H](C)O)NC(=O)[C@H](CC(N)=O)NC(=O)[C@@H](NC(C)=O)C(C)(C)SSC1(C)C)C(=O)N[C@@H](CC(N)=O)C(=O)NCCC(N)=O [compound 232]
half-life at 20 μM [1]: 10 h
half-life at 20 μM [2]: > 24 h
IC50 [3]: < 10 nM
half-life at 20 μM [4]: > 24 h
IC50 [5]: 1 to 10 nM

CC(=O)NCCCC[C@H](NC(=O)[C@](C)(CC(C)C)NC(=O)[C@H](Cc1ccc2ccccc2c1)NC(=O)[C@H](Cc1ccc(OCCN)cc1)NC(=O)[C@H]1NC(=O)[C@](C)(CCCCN)NC(=O)[C@H](Cc2c[nH]c3c(C)cccc23)NC(=O)[C@H]([C@@H](C)O)NC(=O)[C@H](CC(N)=O)NC(=O)[C@@H](NC(C)=O)C(C)(C)SSC1(C)C)C(=O)N[C@@H](CC(N)=O)C(=O)NCCC(N)=O [compound 234]
half-life at 20 μM [1]: > 24 h
half-life at 20 μM [2]: 7 h
IC50 [3]: < 10 nM
half-life at 20 μM [4]: > 24 h
IC50 [5]: 1 to 10 nM

CC(=O)NCCCC[C@H](NC(=O)[C@](C)(CCCCN)NC(=O)[C@H](Cc1ccc2ccccc2c1)NC(=O)[C@H](Cc1ccc(OCCN)cc1)NC(=O)[C@H]1NC(=O)[C@](C)(CC(C)C)NC(=O)[C@H](Cc2c[nH]c3c(C)cccc23)NC(=O)[C@H]([C@@H](C)O)NC(=O)[C@H](CC(N)=O)NC(=O)[C@@H](NC(C)=O)C(C)(C)SSC1(C)C)C(=O)N[C@@H](CC(N)=O)C(=O)NCCC(N)=O [compound 235] (Ac-[Pen]NT[Trp(7-Me)][αMeL][Pen][AEF][2Nal][αMeK]K(Ac)N[βAla]-NH2; disulfide 1-6)
half-life at 20 μM [1]: > 24 h
half-life at 20 μM [2]: 5 h
IC50 [3]: 11 to 100 nM
half-life at 20 μM [4]: > 24 h
IC50 [5]: 1 to 10 nM

CC(=O)N[C@@H]1C(=O)N[C@@H](CC(N)=O)C(=O)N[C@@H]([C@@H](C)O)C(=O)N[C@@H](Cc2c[nH]c3c(C)cccc23)C(=O)N[C@@H](CCC(N)=O)C(=O)N[C@H](C(=O)N[C@@H](Cc2ccc(OCCN)cc2)C(=O)N[C@@H](Cc2ccc3ccccc3c2)C(=O)N[C@@](C)(CCCCN)C(=O)NC(C)(C)C(=O)N[C@@H](CC(N)=O)C(=O)NCCC(N)=O)C(C)(C)SSC1(C)C [compound 236]
half-life at 20 μM [1]: > 24 h
half-life at 20 μM [2]: > 19.8 h
IC50 [3]: < 10 nM
half-life at 20 μM [4]: > 24 h
IC50 [5]: 1 to 10 nM

CC(=O)NCCCC[C@H](NC(=O)[C@](C)(CCCCN)NC(=O)[C@H](Cc1ccc2ccccc2c1)NC(=O)[C@H](Cc1ccc(OCCN)cc1)NC(=O)[C@H]1NC(=O)[C@H](CCC(N)=O)NC(=O)[C@H](Cc2c[nH]c3c(C)cccc23)NC(=O)[C@H]([C@@H](C)O)NC(=O)[C@H](CCCNC(N)=O)NC(=O)[C@@H](NC(C)=O)C(C)(C)SSC1(C)C)C(=O)N[C@@H](CC(N)=O)C(=O)NCCC(N)=O [compound 238] (Ac-[Pen][Cit]T[Trp(7-Me)]Q[Pen][AEF][2Nal][αMeK]K(Ac)N[βAla]-NH2; disulfide 1-6)
half-life at 20 μM [1]: 7 h
half-life at 20 μM [2]: > 24 h
IC50 [3]: < 10 nM
half-life at 20 μM [4]: > 24 h
IC50 [5]: 1 to 10 nM

CC(=O)NCCCC[C@@H]1NC(=O)[C@@H](NC(C)=O)C(C)(C)SSC(C)(C)[C@@H](C(=O)N[C@@H](Cc2ccc(OCCN)cc2)C(=O)N[C@@H](Cc2ccc3ccccc3c2)C(=O)N[C@@](C)(CCCCN)C(=O)N[C@@H](CCCCNC(C)=O)C(=O)N[C@@H](CC(N)=O)C(=O)NCCC(N)=O)NC(=O)[C@H](CCC(N)=O)NC(=O)[C@H](Cc2c[nH]c3c(C)cccc23)NC(=O)[C@H]([C@@H](C)O)NC1=O [compound 239]
half-life at 20 μM [1]: 7 h
half-life at 20 μM [2]: > 24 h
IC50 [3]: < 10 nM
half-life at 20 μM [4]: > 24 h
IC50 [5]: 1 to 10 nM

CC(=O)NCCCC[C@@H]1NC(=O)[C@H](Cc2c[nH]c3c(C)cccc23)NC(=O)[C@H]([C@@H](C)O)NC(=O)[C@H](CC(N)=O)NC(=O)[C@@H](NC(C)=O)C(C)(C)SSC(C)(C)[C@@H](C(=O)N[C@@H](Cc2ccc(OCCN)cc2)C(=O)N[C@@H](Cc2ccc3ccccc3c2)C(=O)N[C@@](C)(CCCCN)C(=O)N[C@@H](CCCCNC(C)=O)C(=O)N[C@@H](CC(N)=O)C(=O)NCCC(N)=O)NC1=O [compound 242]
half-life at 20 μM [1]: 8 h
half-life at 20 μM [2]: > 24 h
IC50 [3]: < 10 nM
half-life at 20 μM [4]: > 24 h
IC50 [5]: < 1 nM

CC(=O)NCCCC[C@H](NC(=O)[C@](C)(CCCCN)NC(=O)[C@H](Cc1ccc2ccccc2c1)NC(=O)[C@H](Cc1ccc(OCCN)cc1)NC(=O)[C@H]1NC(=O)[C@H](CCCNC(N)=O)NC(=O)[C@H](Cc2c[nH]c3c(C)cccc23)NC(=O)[C@H]([C@@H](C)O)NC(=O)[C@H](CC(N)=O)NC(=O)[C@@H](NC(C)=O)C(C)(C)SSC1(C)C)C(=O)N[C@@H](CC(N)=O)C(=O)NC(C)(C)C(N)=O [compound 264] (Ac-[Pen]NT[Trp(7-Me)][Cit][Pen][AEF][2Nal][αMeK]K(Ac)N[Aib]-NH2; disulfide 1-6)
half-life at 20 μM [1]: > 24 h
half-life at 20 μM [2]: > 24 h
half-life [6]: 18 h
IC50 [3]: < 10 nM
half-life at 20 μM [4]: > 24 h
IC50 [5]: < 1 nM

CC(=O)NCCCC[C@@H]1NC(=O)[C@H](Cc2c[nH]c3c(C)cccc23)NC(=O)[C@H]([C@@H](C)O)NC(=O)[C@H](CC(N)=O)NC(=O)[C@@H](NC(C)=O)C(C)(C)SSC(C)(C)[C@@H](C(=O)N[C@@H](Cc2ccc(OCCN)cc2)C(=O)N[C@@H](Cc2ccc3ccccc3c2)C(=O)N[C@@](C)(CCCCN)C(=O)N[C@@H](CCCCNC(C)=O)C(=O)N[C@@H](CO)C(=O)NCCC(N)=O)NC1=O [compound 271]
half-life at 20 μM [1]: > 24 h
half-life at 20 μM [2]: > 24 h
half-life [6]: 22 h
IC50 [3]: < 10 nM
half-life at 20 μM [4]: > 24 h
IC50 [5]: 1 to 10 nM

CC(=O)NCCCC[C@@H]1NC(=O)[C@H](Cc2c[nH]c3c(C)cccc23)NC(=O)[C@H]([C@@H](C)O)NC(=O)[C@H](CC(N)=O)NC(=O)[C@@H](NC(C)=O)C(C)(C)SSC(C)(C)[C@@H](C(=O)N[C@@H](Cc2ccc(OCCN)cc2)C(=O)N[C@@H](Cc2ccc3ccccc3c2)C(=O)N[C@@](C)(CCCCN)C(=O)N[C@@H](CCCCNC(C)=O)C(=O)N[C@@H](Cc2c[nH]cn2)C(=O)NCCC(N)=O)NC1=O [compound 272]
half-life at 20 μM [1]: > 24 h
half-life at 20 μM [2]: > 24 h
IC50 [3]: < 10 nM
half-life at 20 μM [4]: > 24 h
IC50 [5]: 1 to 10 nM

CC(=O)NCCCC[C@@H]1NC(=O)[C@H](Cc2c[nH]c3c(C)cccc23)NC(=O)[C@H]([C@@H](C)O)NC(=O)[C@H](CC(N)=O)NC(=O)[C@@H](NC(C)=O)C(C)(C)SSC(C)(C)[C@@H](C(=O)N[C@@H](Cc2ccc(OCCN)cc2)C(=O)N[C@@H](Cc2ccc3ccccc3c2)C(=O)N[C@@](C)(CCCCN)C(=O)N[C@@H](CCC(=O)O)C(=O)NCCC(=O)NCCC(N)=O)NC1=O [compound 273]
half-life at 20 μM [1]: 12 h
half-life at 20 μM [2]: > 24 h
half-life [6]: 8 h
IC50 [3]: < 10 nM
half-life at 20 μM [4]: > 24 h
IC50 [5]: 1 to 10 nM

CC(=O)N[C@@H]1C(=O)N[C@@H](CC(N)=O)C(=O)N[C@@H]([C@@H](C)O)C(=O)N[C@@H](Cc2c[nH]c3c(C)cccc23)C(=O)N[C@@H](CCC(N)=O)C(=O)N[C@H](C(=O)N[C@@H](Cc2ccc(OCCN)cc2)C(=O)N[C@@H](Cc2ccc3ccccc3c2)C(=O)N[C@@](C)(CCCCN)C(=O)N[C@@H](CCC(=O)O)C(=O)N[C@@H](CC(N)=O)C(=O)NCCC(N)=O)C(C)(C)SSC1(C)C [compound 282]
half-life at 20 μM [1]: 22 h
half-life at 20 μM [2]: > 24 h
IC50 [3]: < 10 nM
half-life at 20 μM [4]: > 24 h
IC50 [5]: 1 to 10 nM
